Test results: ChEMBL document CHEMBL3885881, “DrugMatrix”

Organism: Rattus norvegicus
Assay: DrugMatrix - Regimen: Daily Repeat
Type: toxicity, organism-based, Sprague-Dawley
Set-up: regimen Daily Repeat, gender Male, age 6-8 weeks
Conditions: in vivo, po, route oral GAVAGE, vehicle .5 % CMC; for BASOPHIL / EOSINOPHIL / ERYTHROCYTE COUNT / HEMATOCRIT / HEMOGLOBIN / LEUKOCYTE COUNT / LYMPHOCYTE / MEAN CORPUSCULAR HEMOGLOBIN / MEAN CORPUSCULAR HEMOGLOBIN CONCENTRATION / MEAN CORPUSCULAR VOLUME / MONOCYTE / NEUTROPHIL / PLATELET COUNT: tissue Blood; for ALANINE AMINOTRANSFERASE / ALBUMIN / ALKALINE PHOSPHATASE / ASPARTATE AMINOTRANSFERASE / BLOOD UREA NITROGEN / CHLORIDE / CHOLESTEROL / CREATINE PHOSPHOKINASE / CREATININE / GLUCOSE / PHOSPHORUS / POTASSIUM / SODIUM / TOTAL BILIRUBIN / TOTAL PROTEIN: tissue Plasma
[1] = 0 mg/kg, 72 h, dose level Control, time 3 day
[2] = 0 mg/kg, 120 h, dose level Control, time 5 day
[3] = 150 mg/kg, 72 h, dose level Low, time 3 day
[4] = 150 mg/kg, 120 h, dose level Low, time 5 day
[5] = 1500 mg/kg, 72 h, dose level High, time 3 day
[6] = 1500 mg/kg, 120 h, dose level High, time 5 day

Structure (SMILES): C#C[C@]1(O)CC[C@H]2[C@@H]3CCC4=CC(=O)CC[C@]4(C)[C@H]3CC[C@@]21C [ETHISTERONE]
- BASOPHIL [1]: 0.68%
- EOSINOPHIL [1]: 0.46%
- ERYTHROCYTE COUNT [1]: 7.15 x10E6/uL
- HEMATOCRIT [1]: 45.44%
- HEMOGLOBIN [1]: 14.1 G/DL
- LEUKOCYTE COUNT [1]: 9.78 x10E3/uL
- LYMPHOCYTE [1]: 84.44%
- MEAN CORPUSCULAR HEMOGLOBIN [1]: 19.72 pg
- MEAN CORPUSCULAR HEMOGLOBIN CONCENTRATION [1]: 31 G/DL
- MEAN CORPUSCULAR VOLUME [1]: 63.66 fL
- MONOCYTE [1]: 2.14%
- NEUTROPHIL [1]: 11.16%
- PLATELET COUNT [1]: 1378.2 x10E3/uL
- ALANINE AMINOTRANSFERASE [1]: 42.33 u/L
- ALBUMIN [1]: 3.8 G/DL
- ALKALINE PHOSPHATASE [1]: 388.17 u/L
- ASPARTATE AMINOTRANSFERASE [1]: 68 u/L
- BLOOD UREA NITROGEN [1]: 16.17 mg/dL
- CHLORIDE [1]: 96.67 MEQ/L
- CHOLESTEROL [1]: 71 mg/dL
- CREATINE PHOSPHOKINASE [1]: 156.17 u/L
- CREATININE [1]: 0.57 mg/dL
- GLUCOSE [1]: 193.67 mg/dL
- PHOSPHORUS [1]: 11.43 mg/dL
- POTASSIUM [1]: 7 MEQ/L
- SODIUM [1]: 140.33 MEQ/L
- TOTAL BILIRUBIN [1]: 0.48 mg/dL
- TOTAL PROTEIN [1]: 6.8 G/DL
- BASOPHIL [2]: 1.47%
- EOSINOPHIL [2]: 1%
- ERYTHROCYTE COUNT [2]: 7.12 x10E6/uL
- HEMATOCRIT [2]: 45.47%
- HEMOGLOBIN [2]: 14.1 G/DL
- LEUKOCYTE COUNT [2]: 11.38 x10E3/uL
- LYMPHOCYTE [2]: 82.57%
- MEAN CORPUSCULAR HEMOGLOBIN [2]: 19.82 pg
- MEAN CORPUSCULAR HEMOGLOBIN CONCENTRATION [2]: 31.02 G/DL
- MEAN CORPUSCULAR VOLUME [2]: 63.88 fL
- MONOCYTE [2]: 2.2%
- NEUTROPHIL [2]: 11.97%
- PLATELET COUNT [2]: 1267 x10E3/uL
- ALANINE AMINOTRANSFERASE [2]: 38 u/L
- ALBUMIN [2]: 3.72 G/DL
- ALKALINE PHOSPHATASE [2]: 391 u/L
- ASPARTATE AMINOTRANSFERASE [2]: 65.83 u/L
- BLOOD UREA NITROGEN [2]: 14.17 mg/dL
- CHLORIDE [2]: 107.67 MEQ/L
- CHOLESTEROL [2]: 61 mg/dL
- CREATINE PHOSPHOKINASE [2]: 148.33 u/L
- CREATININE [2]: 0.57 mg/dL
- GLUCOSE [2]: 177.17 mg/dL
- PHOSPHORUS [2]: 12.07 mg/dL
- POTASSIUM [2]: 7.2 MEQ/L
- SODIUM [2]: 151.5 MEQ/L
- TOTAL BILIRUBIN [2]: 0.58 mg/dL
- TOTAL PROTEIN [2]: 6.72 G/DL
- BASOPHIL [3]: 0.73%
- EOSINOPHIL [3]: 0.33%
- ERYTHROCYTE COUNT [3]: 6.6 x10E6/uL
- HEMATOCRIT [3]: 41.67%
- HEMOGLOBIN [3]: 13.17 G/DL
- LEUKOCYTE COUNT [3]: 10.76 x10E3/uL
- LYMPHOCYTE [3]: 79.57%
- MEAN CORPUSCULAR HEMOGLOBIN [3]: 19.9 pg
- MEAN CORPUSCULAR HEMOGLOBIN CONCENTRATION [3]: 31.57 G/DL
- MEAN CORPUSCULAR VOLUME [3]: 63.13 fL
- MONOCYTE [3]: 3.47%
- NEUTROPHIL [3]: 14.4%
- PLATELET COUNT [3]: 1218.67 x10E3/uL
- ALANINE AMINOTRANSFERASE [3]: 35.67 u/L
- ALBUMIN [3]: 3.57 G/DL
- ALKALINE PHOSPHATASE [3]: 319.33 u/L
- ASPARTATE AMINOTRANSFERASE [3]: 62.67 u/L
- BLOOD UREA NITROGEN [3]: 13.33 mg/dL
- CHLORIDE [3]: 95.33 MEQ/L
- CHOLESTEROL [3]: 60 mg/dL
- CREATINE PHOSPHOKINASE [3]: 132 u/L
- CREATININE [3]: 0.5 mg/dL
- GLUCOSE [3]: 185.33 mg/dL
- PHOSPHORUS [3]: 12.3 mg/dL
- POTASSIUM [3]: 6.3 MEQ/L
- SODIUM [3]: 138.33 MEQ/L
- TOTAL BILIRUBIN [3]: 0.4 mg/dL
- TOTAL PROTEIN [3]: 6.37 G/DL
- BASOPHIL [4]: 0.93%
- EOSINOPHIL [4]: 0.27%
- ERYTHROCYTE COUNT [4]: 7.3 x10E6/uL
- HEMATOCRIT [4]: 45.67%
- HEMOGLOBIN [4]: 14.1 G/DL
- LEUKOCYTE COUNT [4]: 8.86 x10E3/uL
- LYMPHOCYTE [4]: 86.5%
- MEAN CORPUSCULAR HEMOGLOBIN [4]: 19.3 pg
- MEAN CORPUSCULAR HEMOGLOBIN CONCENTRATION [4]: 30.87 G/DL
- MEAN CORPUSCULAR VOLUME [4]: 62.6 fL
- MONOCYTE [4]: 2.7%
- NEUTROPHIL [4]: 8.87%
- PLATELET COUNT [4]: 1265.33 x10E3/uL
- ALANINE AMINOTRANSFERASE [4]: 35.67 u/L
- ALBUMIN [4]: 3.6 G/DL
- ALKALINE PHOSPHATASE [4]: 382.67 u/L
- ASPARTATE AMINOTRANSFERASE [4]: 57.67 u/L
- BLOOD UREA NITROGEN [4]: 14.33 mg/dL
- CHLORIDE [4]: 105.67 MEQ/L
- CHOLESTEROL [4]: 39.67 mg/dL
- CREATINE PHOSPHOKINASE [4]: 113.33 u/L
- CREATININE [4]: 0.57 mg/dL
- GLUCOSE [4]: 167 mg/dL
- PHOSPHORUS [4]: 11.77 mg/dL
- POTASSIUM [4]: 7.4 MEQ/L
- SODIUM [4]: 151 MEQ/L
- TOTAL BILIRUBIN [4]: 0.4 mg/dL
- TOTAL PROTEIN [4]: 6.53 G/DL
- BASOPHIL [5]: 0.3%
- EOSINOPHIL [5]: 0.23%
- ERYTHROCYTE COUNT [5]: 7.32 x10E6/uL
- HEMATOCRIT [5]: 46.8%
- HEMOGLOBIN [5]: 15 G/DL
- LEUKOCYTE COUNT [5]: 13.73 x10E3/uL
- LYMPHOCYTE [5]: 85.93%
- MEAN CORPUSCULAR HEMOGLOBIN [5]: 20.53 pg
- MEAN CORPUSCULAR HEMOGLOBIN CONCENTRATION [5]: 32.13 G/DL
- MEAN CORPUSCULAR VOLUME [5]: 63.97 fL
- MONOCYTE [5]: 2.43%
- NEUTROPHIL [5]: 9.77%
- PLATELET COUNT [5]: 1394 x10E3/uL
- ALANINE AMINOTRANSFERASE [5]: 25.33 u/L
- ALBUMIN [5]: 3.93 G/DL
- ALKALINE PHOSPHATASE [5]: 316.67 u/L
- ASPARTATE AMINOTRANSFERASE [5]: 60.33 u/L
- BLOOD UREA NITROGEN [5]: 13.67 mg/dL
- CHLORIDE [5]: 96 MEQ/L
- CHOLESTEROL [5]: 34 mg/dL
- CREATINE PHOSPHOKINASE [5]: 152 u/L
- CREATININE [5]: 0.43 mg/dL
- GLUCOSE [5]: 166.67 mg/dL
- PHOSPHORUS [5]: 12.2 mg/dL
- POTASSIUM [5]: 6.83 MEQ/L
- SODIUM [5]: 142 MEQ/L
- TOTAL BILIRUBIN [5]: 0.3 mg/dL
- TOTAL PROTEIN [5]: 7.17 G/DL
- BASOPHIL [6]: 0.93%
- EOSINOPHIL [6]: 0.27%
- ERYTHROCYTE COUNT [6]: 7.53 x10E6/uL
- HEMATOCRIT [6]: 48.07%
- HEMOGLOBIN [6]: 14.97 G/DL
- LEUKOCYTE COUNT [6]: 7.76 x10E3/uL
- LYMPHOCYTE [6]: 80.6%
- MEAN CORPUSCULAR HEMOGLOBIN [6]: 19.97 pg
- MEAN CORPUSCULAR HEMOGLOBIN CONCENTRATION [6]: 31.2 G/DL
- MEAN CORPUSCULAR VOLUME [6]: 63.93 fL
- MONOCYTE [6]: 3.3%
- NEUTROPHIL [6]: 13.73%
- PLATELET COUNT [6]: 1362.33 x10E3/uL
- ALANINE AMINOTRANSFERASE [6]: 31.67 u/L
- ALBUMIN [6]: 3.73 G/DL
- ALKALINE PHOSPHATASE [6]: 496 u/L
- ASPARTATE AMINOTRANSFERASE [6]: 57.33 u/L
- BLOOD UREA NITROGEN [6]: 11 mg/dL
- CHLORIDE [6]: 105.67 MEQ/L
- CHOLESTEROL [6]: 35.33 mg/dL
- CREATINE PHOSPHOKINASE [6]: 132.67 u/L
- CREATININE [6]: 0.57 mg/dL
- GLUCOSE [6]: 185.67 mg/dL
- PHOSPHORUS [6]: 13.8 mg/dL
- POTASSIUM [6]: 7.47 MEQ/L
- SODIUM [6]: 151.33 MEQ/L
- TOTAL BILIRUBIN [6]: 0.33 mg/dL
- TOTAL PROTEIN [6]: 6.83 G/DL
